Assay results taken from patent US20230391741A1, “AGAROFURAN COMPOUND, PREPARATION METHOD THEREFOR, AND APPLICATION THEREOF” (BEIJING CHY PHARMACEUTICAL TECHNOLOGY CO, LTD., priority 2021, published 2023).
“And” between values parts separate entries of the source, which are not always exact repeats. Equal entries are not always repeated. Where two headings read alike, the source gives them in different places.

Assay: Plasma pharmacokinetics after intraperitoneal injection in mouse (UPLC-MS/MS)
Type: in vivo
Settings: for concentration at 5 min / concentration at 0.167 h / concentration at 0.25 h / concentration at 0.5 h / concentration at 1 h / concentration at 2 h / concentration at 4 h / concentration at 8 h / half-life / MRT / AUC(0-inf) / Cmax / Tmax / AUC(0-t) / MRT inf / concentration at 6 h: male, ICR; for concentration at 5 min / concentration at 0.167 h / concentration at 0.25 h / concentration at 0.5 h / concentration at 1 h / concentration at 2 h / concentration at 4 h / concentration at 8 h / half-life / MRT / concentration at 6 h: plasma; for concentration at 5 min / concentration at 0.167 h / concentration at 0.25 h / concentration at 0.5 h / concentration at 1 h / concentration at 2 h / concentration at 4 h / concentration at 8 h / concentration at 6 h: ip; for MRT: read-out: mean residence time (MRT)(0-t); for AUC(0-inf) / Cmax / Tmax / AUC(0-t) / MRT inf / AUClast/D / AUC—% Extrap—obs / T1/2: mouse plasma, prototype drug; for AUC(0-t): read-out: AUClast; for MRT inf: read-out: MRTInf—obs
Procedure: Positive control drug 4-butyl-α-agarofuran preparation (BAF) and Compound 2 preparation were administered intraperitoneally at a dose of 10 mg/kg/10 ml (calculated according to the crude drug), and a suspension was prepared by ultrasonic grinding with double distilled water. Male ICR mice, with a weight of 21-24 g, were purchased from SPF (Beijing) Biotechnology Co., Ltd.
12 mice were randomly divided into 4 groups, there were 3 parallel cross blood sampling points in each group (5 points in groups 1 and 3, and 6 points in groups 2 and 4), it was administered according to the weight, and blood was collected from the orbital venous plexus at 5 min, 10 min, […], 30 min, 1 h, 2 h, 4 h, 6 h, 8 h, 12 h, and 24 h after administration. The bloods at each time point were collected into Eppendorf (EP) tubes anticoagulated with heparin, and placed on ice and centrifuged at 8000 r/min×5 min, to separate plasma for later use.
20 μl of mouse blank plasma was taken, 55 μl of acetonitrile containing an internal standard solution (200 ng/mL, BAF crude drug and Compound 2 crude drug are mutual internal standards, namely BAF was used as the internal standard of Compound 2, and Compound 2 was used as the internal standard of BAF, similarly hereinafter) is added, 5 μl of a methanol working solution of the compound BAF or Compound 2 with different concentrations was respectively added and mixed uniformly, so that its final plasma concentrations were 0.2, 0.5, 2, 5, 10, 25, 50, 100, 200, 500, 750, and 1000 ng/ml respectively, centrifugation was conducted twice at a high speed of 13000 r/min×5 min, and 5 μl of a supernatant was taken for UPLC-MS/MS analysis.
10 μL of plasma was taken, 30 μL of acetonitrile containing internal standard solution (100 ng/mL) was added to precipitate proteins, after the material was centrifuged twice at a high speed of 13000 r/min×5 min, 5 μl of a supernatant was taken for UPLC-MS/MS analysis.
Chromatographic column: Symmetry C8 (2.1 mm×50 mm, 3.5 μm), column temperature: 25° C., mobile phase: acetonitrile (0.1% formic acid): water (0.1% formic acid)=70:30 gradient elution, flow rate: 0.2 mL/min, Parallel Reaction Monitoring (PRM) detection, BAF: m/z 263.2→245.2; and Compound 2: m/z 317.2→299.2.

[1] = mouse, 10 mg/kg, IP 10 mg/kg, 5 min, read-out: Plasma concentration, Mean
[2] = mouse, 10 mg/kg, IP 10 mg/kg, 0.167 h, read-out: Plasma concentration, Mean
[3] = mouse, 10 mg/kg, IP 10 mg/kg, 0.167 h, read-out: Plasma concentration, individual mice 1-3
[4] = mouse, 10 mg/kg, IP 10 mg/kg, 0.25 h, read-out: Plasma concentration, Mean
[5] = mouse, 10 mg/kg, IP 10 mg/kg, 0.5 h, read-out: Plasma concentration, Mean
[6] = mouse, 10 mg/kg, IP 10 mg/kg, 0.5 h, read-out: Plasma concentration, individual mice 1-3
[7] = mouse, 10 mg/kg, IP 10 mg/kg, 1 h, read-out: Plasma concentration, Mean
[8] = mouse, 10 mg/kg, IP 10 mg/kg, 2 h, read-out: Plasma concentration, Mean
[9] = mouse, 10 mg/kg, IP 10 mg/kg, 2 h, read-out: Plasma concentration, individual mice 1-3
[10] = mouse, 10 mg/kg, IP 10 mg/kg, 4 h, read-out: Plasma concentration, Mean
[11] = mouse, 10 mg/kg, IP 10 mg/kg, 8 h, read-out: Plasma concentration, individual mice 1-3

Compound: CCCCC1=CCC[C@@]2(C)CC[C@@H]3C[C@]12OC3(C)C [BAF, 4-butyl-α-agarofuran, reference compound]
- Plasma concentration, individual mice 1-3 (IP 10 mg/kg, 5 min, 10 mg/kg): 413 ng/mL and 295 ng/mL and 194 ng/mL
- Plasma concentration, individual mice 1-3 (IP 10 mg/kg, 0.167 h, 10 mg/kg): 133 ng/mL and 204 ng/mL
- Plasma concentration, individual mice 1-3 (IP 10 mg/kg, 0.25 h, 10 mg/kg): 364 ng/mL and 132 ng/mL and 91.8 ng/mL
- Plasma concentration, individual mice 1-3 (IP 10 mg/kg, 0.5 h, 10 mg/kg): 45.2 ng/mL and 38.9 ng/mL
- Plasma concentration, individual mice 1-3 (IP 10 mg/kg, 1 h, 10 mg/kg): 54.6 ng/mL and 22.2 ng/mL and 24.4 ng/mL
- Plasma concentration, individual mice 1-3 (IP 10 mg/kg, 2 h, 10 mg/kg): 6.91 ng/mL and 6.54 ng/mL
- Plasma concentration, individual mice 1-3 (IP 10 mg/kg, 4 h, 10 mg/kg): 11.3 ng/mL and 2.09 ng/mL and 2.90 ng/mL
- Plasma concentration, individual mice 1-3 (IP 10 mg/kg, 6 h): BLOQ
- Plasma concentration, individual mice 1-3 (IP 10 mg/kg, 8 h, 10 mg/kg): BLOQ
- Plasma concentration, individual mice 1-3 (IP 10 mg/kg, 12 h): BLOQ
- Plasma concentration, individual mice 1-3 (IP 10 mg/kg, 24 h): BLOQ
- concentration at 5 min [1]: 301 ng/mL
- concentration at 0.167 h [2]: 179 ng/mL
- concentration at 0.167 h [3]: 201 ng/mL
- concentration at 0.25 h [4]: 196 ng/mL
- concentration at 0.5 h [5]: 42 ng/mL
- concentration at 0.5 h [6]: 41.9 ng/mL
- concentration at 1 h [7]: 33.7 ng/mL
- concentration at 2 h [8]: 6.52 ng/mL
- concentration at 2 h [9]: 6.1 ng/mL
- concentration at 4 h [10]: 5.4 ng/mL
- concentration at 8 h [11]: 4.03 ng/mL
- half-life (mouse, IP 10 mg/kg): 1.29 h
- MRT (mouse, IP 10 mg/kg): 1.05 h
- AUC(0-inf) (IP 10 mg/kg): 139 ng·h/mL
- Cmax (IP 10 mg/kg): 301 ng/mL
- Tmax (IP 10 mg/kg): 5 min
- AUC(0-t) (IP 10 mg/kg): 129 ng·h/mL
- MRT inf (IP 10 mg/kg): 1.05 h
- AUClast/D (IP 10 mg/kg): 12.9 kg·ng·h/mL/mg
- AUC—% Extrap—obs (IP 10 mg/kg): 7.24%
- T1/2 (IP 10 mg/kg): 1.29 h

Compound: CC1(C)O[C@]23C[C@H]1CC[C@]2(C)CCC=C3CCCC(F)(F)F [Compound 2, (1R,6S,9R)6,10,10-trimethyl-2-(4,4,4-trifluorobutyl)-11-oxatricyclo [7.2.1.0^1,6]dodec-2-ene]
- Plasma concentration, individual mice 1-3 (IP 10 mg/kg, 5 min, 10 mg/kg): 407 ng/mL and 585 ng/mL
- Plasma concentration, individual mice 1-3 (IP 10 mg/kg, 0.167 h, 10 mg/kg): 198 ng/mL and 214 ng/mL
- Plasma concentration, individual mice 1-3 (IP 10 mg/kg, 0.25 h, 10 mg/kg): 201 ng/mL and 196 ng/mL
- Plasma concentration, individual mice 1-3 (IP 10 mg/kg, 0.5 h, 10 mg/kg): 59.8 ng/mL and 67.5 ng/mL
- Plasma concentration, individual mice 1-3 (IP 10 mg/kg, 1 h, 10 mg/kg): 41.2 ng/mL and 32.1 ng/mL
- Plasma concentration, individual mice 1-3 (IP 10 mg/kg, 2 h, 10 mg/kg): 17.9 ng/mL and 22.3 ng/mL
- Plasma concentration, individual mice 1-3 (IP 10 mg/kg, 4 h, 10 mg/kg): 8.03 ng/mL and 6.56 ng/mL
- Plasma concentration, individual mice 1-3 (IP 10 mg/kg, 6 h, 10 mg/kg): 3.20 ng/mL and 3.79 ng/mL
- Plasma concentration, individual mice 1-3 (IP 10 mg/kg, 8 h, 10 mg/kg): BLOQ
- Plasma concentration, individual mice 1-3 (IP 10 mg/kg, 12 h): BLOQ
- Plasma concentration, individual mice 1-3 (IP 10 mg/kg, 24 h): BLOQ
- concentration at 5 min [1]: 450 ng/mL
- concentration at 5 min (mouse, 10 mg/kg, IP 10 mg/kg, 5 min, read-out: Plasma concentration, individual mice 1-3): 359 ng/mL
- concentration at 0.167 h [2]: 251 ng/mL
- concentration at 0.167 h [3]: 341 ng/mL
- concentration at 0.25 h [4]: 195 ng/mL
- concentration at 0.25 h (mouse, 10 mg/kg, IP 10 mg/kg, 0.25 h, read-out: Plasma concentration, individual mice 1-3): 188 ng/mL
- concentration at 0.5 h [5]: 69.5 ng/mL
- concentration at 0.5 h [6]: 81.1 ng/mL
- concentration at 1 h [7]: 32.5 ng/mL
- concentration at 1 h (mouse, 10 mg/kg, IP 10 mg/kg, 1 h, read-out: Plasma concentration, individual mice 1-3): 24.3 ng/mL
- concentration at 2 h [8]: 20 ng/mL
- concentration at 2 h [9]: 19.7 ng/mL
- concentration at 4 h [10]: 7.45 ng/mL
- concentration at 4 h (mouse, 10 mg/kg, IP 10 mg/kg, 4 h, read-out: Plasma concentration, individual mice 1-3): 7.77 ng/mL
- concentration at 6 h (mouse, 10 mg/kg, IP 10 mg/kg, 6 h, read-out: Plasma concentration, Mean): 3.56 ng/mL
- concentration at 6 h (mouse, 10 mg/kg, IP 10 mg/kg, 6 h, read-out: Plasma concentration, individual mice 1-3): 3.69 ng/mL
- concentration at 8 h [11]: 3.17 ng/mL
- half-life (mouse, IP 10 mg/kg): 1.61 h
- MRT (mouse, IP 10 mg/kg): 1.32 h
- AUC(0-inf) (IP 10 mg/kg): 198 ng·h/mL
- Cmax (IP 10 mg/kg): 450 ng/mL
- Tmax (IP 10 mg/kg): 5 min
- AUC(0-t) (IP 10 mg/kg): 190 ng·h/mL
- MRT inf (IP 10 mg/kg): 1.32 h
- AUClast/D (IP 10 mg/kg): 19 kg·ng·h/mL/mg
- AUC—% Extrap—obs (IP 10 mg/kg): 4.16%
- T1/2 (IP 10 mg/kg): 1.61 h
- Pharmacokinetic properties compared with BAF (mouse, IP): better pharmacokinetic properties
- AUC(0-t) as percentage of BAF (mouse, IP 10 mg/kg): 142%
- Cmax as percentage of BAF (mouse, IP 10 mg/kg): 150%
